From paper PMC7302004, “Tandem gene duplications drive divergent evolution of caffeine and crocin biosynthetic pathways in plants” (BMC Biology, 2020)

Columns and labels:
[1] = target: T1, GjALDH2C3 (Gardenia jasminoides, UniProt A0A288W8F8); assay: in vitro oxidation, UPLC-DAD and LC-MS; format: biochemical; conditions: products crocetin and crocetin semialdehyde
T1 sequence (A0A288W8F8 1-503): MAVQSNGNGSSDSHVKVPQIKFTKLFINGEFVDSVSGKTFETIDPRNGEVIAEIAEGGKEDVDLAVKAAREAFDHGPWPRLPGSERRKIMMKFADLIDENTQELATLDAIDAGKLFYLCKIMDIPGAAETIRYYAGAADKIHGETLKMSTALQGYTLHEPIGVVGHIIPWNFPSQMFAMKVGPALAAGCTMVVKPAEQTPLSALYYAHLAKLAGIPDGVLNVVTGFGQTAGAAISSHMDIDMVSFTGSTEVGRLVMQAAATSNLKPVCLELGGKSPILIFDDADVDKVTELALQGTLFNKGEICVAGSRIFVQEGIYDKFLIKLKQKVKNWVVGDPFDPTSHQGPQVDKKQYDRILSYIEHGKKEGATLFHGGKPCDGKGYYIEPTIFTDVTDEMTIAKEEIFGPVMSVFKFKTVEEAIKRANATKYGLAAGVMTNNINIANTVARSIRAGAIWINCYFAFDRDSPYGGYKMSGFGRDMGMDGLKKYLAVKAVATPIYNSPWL

[2] = target: T2, GjUGT74F8 (Gardenia jasminoides, UniProt Z9ZI51R9R0); assay: in vitro glucosylation, UPLC-DAD and LC-MS; format: biochemical; conditions: products crocin III and crocin V
T2 sequence (Z9ZI51R9R0 1-457): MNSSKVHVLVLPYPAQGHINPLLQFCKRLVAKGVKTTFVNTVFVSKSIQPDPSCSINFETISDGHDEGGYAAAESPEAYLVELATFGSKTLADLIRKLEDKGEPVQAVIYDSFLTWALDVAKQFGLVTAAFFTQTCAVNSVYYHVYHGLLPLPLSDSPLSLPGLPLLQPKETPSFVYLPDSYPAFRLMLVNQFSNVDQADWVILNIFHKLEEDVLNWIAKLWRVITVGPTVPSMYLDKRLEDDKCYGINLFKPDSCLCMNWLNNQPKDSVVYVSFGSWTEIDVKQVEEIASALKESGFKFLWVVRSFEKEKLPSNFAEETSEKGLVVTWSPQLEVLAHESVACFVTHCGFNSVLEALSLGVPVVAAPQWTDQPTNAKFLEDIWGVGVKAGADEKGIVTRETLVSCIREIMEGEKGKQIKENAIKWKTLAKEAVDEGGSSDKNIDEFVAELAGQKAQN

[3] = target: T3, GjUGT75L6 (Gardenia jasminoides, UniProt F8WKW0); conditions: purification not stated in main text
T3 construct: gene UGT75L6
T3 sequence (F8WKW0 whole entry): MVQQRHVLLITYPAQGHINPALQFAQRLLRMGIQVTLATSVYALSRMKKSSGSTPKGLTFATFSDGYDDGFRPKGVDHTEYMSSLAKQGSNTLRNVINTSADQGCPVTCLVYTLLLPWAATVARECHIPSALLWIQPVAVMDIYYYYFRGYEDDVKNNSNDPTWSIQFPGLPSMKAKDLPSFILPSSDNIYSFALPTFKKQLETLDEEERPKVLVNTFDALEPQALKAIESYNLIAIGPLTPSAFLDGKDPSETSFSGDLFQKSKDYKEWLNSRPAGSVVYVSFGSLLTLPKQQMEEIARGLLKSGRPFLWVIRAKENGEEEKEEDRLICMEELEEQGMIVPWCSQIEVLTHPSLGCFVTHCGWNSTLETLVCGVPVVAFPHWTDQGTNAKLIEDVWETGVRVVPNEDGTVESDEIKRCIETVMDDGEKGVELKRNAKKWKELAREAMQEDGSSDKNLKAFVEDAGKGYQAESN

[4] = target: T2, GjUGT74F8; assay: in vitro de-glucosylation, UPLC-DAD and LC-MS; format: biochemical; conditions: reversible; product crocin IV
[5] = target: T4, GjUGT94E13 (Gardenia jasminoides, UniProt A0A288W8G7); assay: in vitro glucosylation, UPLC-DAD and LC-MS; format: biochemical; conditions: product crocin I
T4 sequence (A0A288W8G7 1-446): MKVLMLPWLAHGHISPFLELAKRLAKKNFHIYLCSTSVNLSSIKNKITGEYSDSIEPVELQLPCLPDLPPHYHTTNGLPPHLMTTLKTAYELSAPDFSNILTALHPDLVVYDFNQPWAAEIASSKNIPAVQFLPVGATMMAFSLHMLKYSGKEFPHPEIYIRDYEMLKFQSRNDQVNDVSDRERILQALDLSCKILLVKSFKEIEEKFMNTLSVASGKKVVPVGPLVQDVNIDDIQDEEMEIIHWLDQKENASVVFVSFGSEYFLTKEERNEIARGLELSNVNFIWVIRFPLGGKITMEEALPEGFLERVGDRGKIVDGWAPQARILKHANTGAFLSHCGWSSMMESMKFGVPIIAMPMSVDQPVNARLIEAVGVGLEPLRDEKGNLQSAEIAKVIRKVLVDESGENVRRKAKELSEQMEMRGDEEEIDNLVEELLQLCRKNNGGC

[6] = target: GjCCD4a (Gardenia jasminoides, UniProt A0A288W8F9); assay: in bacterio carotenoid cleavage, UPLC-DAD and LC-MS; conditions: E. coli accumulating zeaxanthin; product crocetin dialdehyde
Sequence of GjCCD4a (A0A288W8F9 entry or part of it): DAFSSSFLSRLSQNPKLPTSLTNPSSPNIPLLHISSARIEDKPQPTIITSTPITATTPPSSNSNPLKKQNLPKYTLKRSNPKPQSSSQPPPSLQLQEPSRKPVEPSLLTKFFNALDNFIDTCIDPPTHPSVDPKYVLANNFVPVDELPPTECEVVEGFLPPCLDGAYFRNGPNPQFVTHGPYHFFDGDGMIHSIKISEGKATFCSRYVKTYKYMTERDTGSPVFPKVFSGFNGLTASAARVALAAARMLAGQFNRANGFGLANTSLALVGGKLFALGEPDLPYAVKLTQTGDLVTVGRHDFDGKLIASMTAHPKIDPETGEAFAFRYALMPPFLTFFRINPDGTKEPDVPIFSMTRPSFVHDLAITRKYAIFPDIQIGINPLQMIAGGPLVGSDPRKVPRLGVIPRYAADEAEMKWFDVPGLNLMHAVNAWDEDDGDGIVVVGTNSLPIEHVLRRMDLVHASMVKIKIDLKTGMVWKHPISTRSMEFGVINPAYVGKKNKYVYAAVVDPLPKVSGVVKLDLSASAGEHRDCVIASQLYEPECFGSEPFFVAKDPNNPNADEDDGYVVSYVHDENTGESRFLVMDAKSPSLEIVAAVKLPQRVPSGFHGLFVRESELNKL

C\C(C=O)=C/C=C/C(C)=C/C=C/C=C(C)/C=C/C=C(\C)C=O [crocetin dialdehyde]
in vitro oxidation, UPLC-DAD and LC-MS [1]: Incubation of crocetin dialdehyde with GjALDH2C3 yielded two new peaks

CC(/C=C/C=C(\C)C(=O)O)=C\C=C\C=C(C)\C=C\C=C(/C)C(=O)O [crocetin]
in vitro glucosylation, UPLC-DAD and LC-MS [2]: Upon in vitro incubation of GjUGT74F8 with crocetin, two new peaks
in vitro glucosylation, UPLC [3]: GjUGT75L6, and GjUGT94E13, were able to glycosylate crocetin and/or crocins

CC(/C=C/C=C(\C)C(=O)O[C@@H]1O[C@H](CO)[C@@H](O)[C@H](O)[C@H]1O)=C\C=C\C=C(C)\C=C\C=C(/C)C(=O)O[C@@H]1O[C@H](CO[C@@H]2O[C@H](CO)[C@@H](O)[C@H](O)[C@H]2O)[C@@H](O)[C@H](O)[C@H]1O [crocin II]
in vitro de-glucosylation, UPLC-DAD and LC-MS [4]: reversible conversion of crocin II to crocin IV and vice versa was observed
in vitro glucosylation, UPLC-DAD and LC-MS [5]: GjUGT94E13 could efficiently catalyze the glycosylation of crocins II and III to crocin I

CC1=C(/C=C/C(C)=C/C=C/C(C)=C/C=C/C=C(C)/C=C/C=C(C)/C=C/C2=C(C)C[C@@H](O)CC2(C)C)C(C)(C)C[C@H](O)C1 [zeaxanthin]
in bacterio carotenoid cleavage, UPLC-DAD and LC-MS [6]: a new product with a retention time and characteristic fragment ions
